Test results taken from publication PMC11266321 (EJNMMI Radiopharmacy and Chemistry, 2024).

Molecular target: T1, Serotonin 5HT3 (human) (Homo sapiens, UniProt P46098)
T1 construct: Sekisui Medical (contract laboratory that ran the panel)
Experiment: Radioligand binding inhibition, Serotonin 5HT3
Conditions: 10 µM; radioligand [^3H]GR65630; mean of duplicate
Method: Interaction of MMP with 28 binding sites was examined, including major classes of neurotransmitter receptor, uptake system, and ion channels (Sekisui Medical, Naka, Japan). MMP was tested in all assays at 10 µM. […] 10.2.3 (GraphPad Software, San Diego, CA). Each determination was made in duplicate.
Test substance concentration : 10 µM, positive substance concentration : 10 µM
Data are expressed as the mean values of duplicate samples.
The % inhibition was calculated from “100 – binding ratio”.
Binding ratio: [(B - N) / (B0 - N)] × 100 (%)
B: Bound radioactivity in the presence of test substance and positive substance (individual value)
B0: Total bound radioactivity in the absence of test substance and positive substance (mean value)
N: Non-specific bound radioactivity (mean value)

T1 sequence (P46098 24-478): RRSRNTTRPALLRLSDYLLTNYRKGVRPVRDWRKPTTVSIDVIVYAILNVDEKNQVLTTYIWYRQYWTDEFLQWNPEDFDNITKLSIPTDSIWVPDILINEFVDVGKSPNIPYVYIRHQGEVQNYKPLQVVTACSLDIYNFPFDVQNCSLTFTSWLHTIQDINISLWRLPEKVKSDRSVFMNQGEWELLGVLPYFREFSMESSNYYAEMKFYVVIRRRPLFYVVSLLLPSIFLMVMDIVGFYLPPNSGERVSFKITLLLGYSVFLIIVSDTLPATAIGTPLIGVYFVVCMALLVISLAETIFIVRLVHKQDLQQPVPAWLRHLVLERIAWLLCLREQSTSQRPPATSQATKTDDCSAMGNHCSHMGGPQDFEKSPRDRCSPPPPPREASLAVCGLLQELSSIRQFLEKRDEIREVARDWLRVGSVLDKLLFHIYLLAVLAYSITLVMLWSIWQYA

## Cc1ccc(CC(C)NC(C)C)cc1 (stereo not shown) [MMP, N-isopropyl-p-methylamphetamine]
  Inhibition ratio (%): 0.91%
